# Assay results taken from US7875436B2 (priority 2004, dated 2011).
# “Also recorded” adds a separate entry of the source.
# How the values were obtained:
# BoNTA [1] = molecular target: T1, BoNTA (Clostridium botulinum, UniProt P0DPI1)
# Target sequence in this assay (P0DPI1 2-448 limits assumed): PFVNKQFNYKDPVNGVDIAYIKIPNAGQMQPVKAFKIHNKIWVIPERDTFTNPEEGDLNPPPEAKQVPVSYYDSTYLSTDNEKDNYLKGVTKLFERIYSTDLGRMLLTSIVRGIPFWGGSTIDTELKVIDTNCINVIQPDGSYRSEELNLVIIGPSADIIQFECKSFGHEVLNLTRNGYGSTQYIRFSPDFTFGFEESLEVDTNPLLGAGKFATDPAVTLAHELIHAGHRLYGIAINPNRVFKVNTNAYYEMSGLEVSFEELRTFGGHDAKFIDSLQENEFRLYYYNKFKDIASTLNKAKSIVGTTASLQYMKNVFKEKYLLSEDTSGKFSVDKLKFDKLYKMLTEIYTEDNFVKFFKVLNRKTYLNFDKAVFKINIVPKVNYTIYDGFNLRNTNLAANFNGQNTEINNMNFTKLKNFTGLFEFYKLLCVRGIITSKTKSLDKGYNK
# BoNTA [2] = molecular target: T1, BoNTA; remark: listed apart in the source
# Target sequence in this assay (P0DPI1 whole entry, looked up): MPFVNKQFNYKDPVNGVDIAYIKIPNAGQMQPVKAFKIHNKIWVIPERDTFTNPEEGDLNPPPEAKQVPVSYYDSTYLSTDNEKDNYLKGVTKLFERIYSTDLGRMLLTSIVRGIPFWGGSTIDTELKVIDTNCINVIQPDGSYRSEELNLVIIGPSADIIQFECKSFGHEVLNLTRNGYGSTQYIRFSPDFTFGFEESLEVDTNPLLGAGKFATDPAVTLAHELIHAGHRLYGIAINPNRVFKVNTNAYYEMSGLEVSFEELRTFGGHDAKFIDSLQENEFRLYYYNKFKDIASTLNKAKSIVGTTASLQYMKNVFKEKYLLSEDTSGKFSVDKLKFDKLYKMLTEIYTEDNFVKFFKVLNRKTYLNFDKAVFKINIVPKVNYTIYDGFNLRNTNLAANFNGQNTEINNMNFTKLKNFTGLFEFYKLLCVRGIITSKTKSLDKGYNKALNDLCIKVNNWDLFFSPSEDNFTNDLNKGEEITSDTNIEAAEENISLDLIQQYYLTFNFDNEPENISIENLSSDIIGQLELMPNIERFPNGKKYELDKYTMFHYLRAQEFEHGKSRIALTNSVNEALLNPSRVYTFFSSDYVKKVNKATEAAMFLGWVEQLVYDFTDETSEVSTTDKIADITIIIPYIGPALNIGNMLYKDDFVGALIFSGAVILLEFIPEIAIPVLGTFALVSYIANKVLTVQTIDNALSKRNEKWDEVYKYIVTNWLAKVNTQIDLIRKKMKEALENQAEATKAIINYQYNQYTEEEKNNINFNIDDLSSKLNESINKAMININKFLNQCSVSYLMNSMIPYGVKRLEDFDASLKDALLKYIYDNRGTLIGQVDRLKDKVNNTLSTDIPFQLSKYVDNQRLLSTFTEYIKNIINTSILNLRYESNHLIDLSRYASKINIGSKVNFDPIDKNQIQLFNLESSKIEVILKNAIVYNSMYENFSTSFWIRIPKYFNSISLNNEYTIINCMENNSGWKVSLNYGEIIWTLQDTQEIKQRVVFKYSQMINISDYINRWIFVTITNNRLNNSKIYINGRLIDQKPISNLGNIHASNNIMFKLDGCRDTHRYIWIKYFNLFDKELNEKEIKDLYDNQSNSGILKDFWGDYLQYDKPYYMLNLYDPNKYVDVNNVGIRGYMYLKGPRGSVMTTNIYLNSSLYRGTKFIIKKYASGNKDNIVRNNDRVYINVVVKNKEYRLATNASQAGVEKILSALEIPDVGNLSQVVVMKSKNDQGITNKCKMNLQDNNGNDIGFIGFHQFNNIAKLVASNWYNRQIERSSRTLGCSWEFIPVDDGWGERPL
# BoNTA [3] = molecular target: T1, BoNTA; remark: listed apart in the source
# Target sequence in this assay (P0DPI1 whole entry, looked up): as above
substance,measurement,setting,value
Ac IIGNLRHMALDMGNEIDTQNRQIDRIMEKADSNKTRIDEAN Nop R A Pya K Nle L NH2 [Substrate S9],BoNT/A concentration that can be quantified,BoNTA [1]; pH 7.4,0.2 ng/mL
same,"parameters (Km, kcat, Vmax) for the hydrolysis, compared with SNAP 25",BoNTA [2],more favorable than for SNAP 25; also recorded: better than those reported for SNAP 25 itself and other substrates reported to date
same,metabolites formed on cleavage by BoNTA,BoNTA [3],only two metabolites formed
Ac-S-N-K-T-R-I-D-E-A-N-Pya-R-A-Nop-K-Nle-L-NH2 [Pya^197Nop^200(187-203)SNAP25],cleavage by the toxin BoNT/A,BoNTA [1],weakly cleaved
ethylene diamine tetracetate [EDTA],effect on fluorescence emitted by degradation of substrate S1 by BoNT/A (enzymatic activity),BoNTA [1],inhibition of the fluorescence
